Structures can show the parent of a compound that is named as a salt.
What was measured:
human CYP2D6 = human CYP2D6 (Homo sapiens, UniProt P10635)
human CYP1A2 [1] = biological target: T1, human CYP1A2 (Homo sapiens, UniProt P05177)
T1 sequence (P05177 1-516): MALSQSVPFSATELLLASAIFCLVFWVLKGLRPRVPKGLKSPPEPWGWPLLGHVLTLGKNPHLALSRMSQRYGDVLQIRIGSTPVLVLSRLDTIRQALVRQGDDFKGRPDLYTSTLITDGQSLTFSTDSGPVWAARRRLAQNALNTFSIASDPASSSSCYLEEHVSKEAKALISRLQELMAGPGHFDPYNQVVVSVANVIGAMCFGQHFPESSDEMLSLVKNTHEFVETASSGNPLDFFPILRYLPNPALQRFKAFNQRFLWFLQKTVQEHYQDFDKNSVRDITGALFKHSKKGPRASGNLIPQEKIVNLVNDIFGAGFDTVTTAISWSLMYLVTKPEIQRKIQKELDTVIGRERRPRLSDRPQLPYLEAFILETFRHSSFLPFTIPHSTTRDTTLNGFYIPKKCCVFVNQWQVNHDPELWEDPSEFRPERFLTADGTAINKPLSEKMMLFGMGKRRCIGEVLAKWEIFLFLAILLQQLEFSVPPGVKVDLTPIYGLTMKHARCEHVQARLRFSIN

[2] = biological target: Photinus pyralis (firefly) luciferase (Photinus pyralis, UniProt P08659); experiment: biochemical; assay type: biochemical
Chain of Photinus pyralis (firefly) luciferase (P08659 whole entry): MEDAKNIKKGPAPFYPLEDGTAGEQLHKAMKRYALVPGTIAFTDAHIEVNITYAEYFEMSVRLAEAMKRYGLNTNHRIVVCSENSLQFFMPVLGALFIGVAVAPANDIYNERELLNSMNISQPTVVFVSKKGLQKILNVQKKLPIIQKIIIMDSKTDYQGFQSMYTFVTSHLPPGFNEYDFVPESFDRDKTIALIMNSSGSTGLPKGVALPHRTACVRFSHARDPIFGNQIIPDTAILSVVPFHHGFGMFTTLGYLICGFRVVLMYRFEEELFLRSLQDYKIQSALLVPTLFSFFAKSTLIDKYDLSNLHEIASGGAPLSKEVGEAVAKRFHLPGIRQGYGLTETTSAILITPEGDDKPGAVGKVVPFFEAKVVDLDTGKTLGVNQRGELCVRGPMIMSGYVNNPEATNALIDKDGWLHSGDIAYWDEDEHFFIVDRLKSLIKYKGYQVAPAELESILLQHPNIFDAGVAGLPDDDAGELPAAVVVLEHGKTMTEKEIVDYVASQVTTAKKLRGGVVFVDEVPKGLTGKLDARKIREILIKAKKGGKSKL

human CYP2C9 [3] = biological target: T2, human CYP2C9 (Homo sapiens, UniProt P11712)
T2 sequence (P11712 whole entry): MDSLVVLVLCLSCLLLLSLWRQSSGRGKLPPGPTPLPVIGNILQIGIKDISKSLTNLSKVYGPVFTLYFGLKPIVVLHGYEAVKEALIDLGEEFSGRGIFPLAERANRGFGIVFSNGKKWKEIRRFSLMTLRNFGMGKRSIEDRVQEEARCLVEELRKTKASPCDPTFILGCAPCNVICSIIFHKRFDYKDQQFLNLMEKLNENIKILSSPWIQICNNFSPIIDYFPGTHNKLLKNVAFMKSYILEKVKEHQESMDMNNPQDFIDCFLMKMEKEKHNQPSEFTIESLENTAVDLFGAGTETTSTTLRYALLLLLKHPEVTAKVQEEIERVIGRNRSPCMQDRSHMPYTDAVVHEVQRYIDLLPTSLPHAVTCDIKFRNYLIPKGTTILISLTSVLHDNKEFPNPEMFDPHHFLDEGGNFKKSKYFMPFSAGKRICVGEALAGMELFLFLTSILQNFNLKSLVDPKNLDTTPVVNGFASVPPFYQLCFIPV

human CYP2C19 [4] = biological target: T3, human CYP2C19 (Homo sapiens, UniProt P33261)
T3 sequence (P33261 whole entry): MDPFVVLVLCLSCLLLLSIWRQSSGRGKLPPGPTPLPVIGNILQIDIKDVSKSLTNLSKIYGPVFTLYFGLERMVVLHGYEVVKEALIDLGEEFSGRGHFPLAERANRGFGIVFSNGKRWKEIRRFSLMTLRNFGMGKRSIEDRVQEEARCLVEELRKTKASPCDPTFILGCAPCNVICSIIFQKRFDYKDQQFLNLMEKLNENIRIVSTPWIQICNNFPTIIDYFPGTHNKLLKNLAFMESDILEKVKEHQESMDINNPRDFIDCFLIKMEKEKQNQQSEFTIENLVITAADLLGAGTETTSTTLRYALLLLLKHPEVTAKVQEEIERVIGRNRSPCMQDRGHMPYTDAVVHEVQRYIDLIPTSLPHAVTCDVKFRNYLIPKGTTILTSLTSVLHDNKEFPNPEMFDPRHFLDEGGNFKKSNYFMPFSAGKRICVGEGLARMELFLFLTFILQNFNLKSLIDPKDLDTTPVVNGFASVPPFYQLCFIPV

human CYP2C19 [5] = biological target: T3, human CYP2C19; experiment: biochemical
CYP3A4 = CYP3A4 (Homo sapiens, UniProt P08684)
Chain of CYP3A4 (P08684 whole entry): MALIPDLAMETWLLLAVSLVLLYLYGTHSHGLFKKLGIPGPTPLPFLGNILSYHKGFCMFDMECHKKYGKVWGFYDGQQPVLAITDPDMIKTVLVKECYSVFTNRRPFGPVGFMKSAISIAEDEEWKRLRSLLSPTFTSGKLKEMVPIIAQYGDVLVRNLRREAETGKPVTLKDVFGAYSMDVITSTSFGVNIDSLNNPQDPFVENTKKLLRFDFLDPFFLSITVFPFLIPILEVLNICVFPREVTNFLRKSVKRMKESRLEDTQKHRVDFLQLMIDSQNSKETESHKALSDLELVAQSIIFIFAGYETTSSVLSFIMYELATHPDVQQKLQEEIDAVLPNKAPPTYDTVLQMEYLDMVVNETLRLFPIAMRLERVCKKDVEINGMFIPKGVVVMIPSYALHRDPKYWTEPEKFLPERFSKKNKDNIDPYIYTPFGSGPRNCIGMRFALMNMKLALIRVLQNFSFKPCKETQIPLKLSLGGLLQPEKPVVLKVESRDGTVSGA

human CYP1A2 [6] = biological target: T1, human CYP1A2; experiment: biochemical
human CYP2C9 [7] = biological target: T2, human CYP2C9; experiment: biochemical

Chain of human CYP2D6 (P10635 whole entry): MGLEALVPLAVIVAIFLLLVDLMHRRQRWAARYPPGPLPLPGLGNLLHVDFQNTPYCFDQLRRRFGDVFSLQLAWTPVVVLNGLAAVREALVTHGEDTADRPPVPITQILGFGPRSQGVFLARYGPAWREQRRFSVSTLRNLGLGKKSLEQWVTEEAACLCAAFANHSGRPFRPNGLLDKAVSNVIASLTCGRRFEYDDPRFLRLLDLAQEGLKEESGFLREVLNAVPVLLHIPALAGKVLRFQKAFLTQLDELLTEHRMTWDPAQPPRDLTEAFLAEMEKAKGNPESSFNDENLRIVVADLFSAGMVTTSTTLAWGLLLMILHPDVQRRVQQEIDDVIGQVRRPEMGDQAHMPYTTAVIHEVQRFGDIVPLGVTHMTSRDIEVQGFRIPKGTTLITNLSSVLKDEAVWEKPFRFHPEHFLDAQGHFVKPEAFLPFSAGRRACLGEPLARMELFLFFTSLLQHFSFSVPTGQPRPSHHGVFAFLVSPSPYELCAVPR

## Cl.Cl.c1ccc(CNCCNCc2ccccc2)cc1
Human CYP2D6
  CYP2D6 Efficacy: 0.79 ± 0.18 (-110 ± 5) %
Human CYP1A2 [1]
  CYP1A2 Efficacy: 20.22 ± 5.13 (-47 ± 10) %
[2]
  Luciferase IC50: Inactive
Human CYP2C9 [3]
  CYP2C9 IC50: Inactive
Human CYP2C19 [4]
  CYP2C19 Efficacy: 8.08 ± 0.55 (-122 ± 16) %

## CC(C)c1ccccc1O [2-Isopropylphenol]
Human CYP2D6
  CYP2D6 AC50 (half-maximal activity concentration): Inactive
Human CYP2C19 [5]
  AC50: 9.09 µM
CYP3A4
  CYP3A4 AC50 (half-maximal activity concentration): Inactive
Human CYP2C9 [3]
  CYP2C9 AC50 (half-maximal activity concentration): Inactive
Human CYP1A2 [6]
  AC50: 47.7 µM

## CCc1cc(Cc2cc(CC)c(N)c(CC)c2)cc(CC)c1N [4,4'-Methylenebis(2,6-diethylaniline)]
[2]
  Luciferase IC50: Inactive

## CC(=O)C1(O)CCC2C3CCC4=CC(=O)CCC4(C)C3CCC21C (stereo not drawn) [17alpha-Hydroxyprogesterone]
[2]
  Luciferase IC50 (half-maximal inhibitory concentration): Inactive

## C[C@@H]1CC[C@H]2[C@@H](C)C(=O)O[C@@H]3O[C@@]4(C)CC[C@@H]1[C@]32OO4 [Artemisinin]
[2]
  Luciferase IC50 (half-maximal inhibitory concentration): Inactive

## CCOC(=O)OC(C)OC(=O)[C@@H]1N2C(=O)[C@@H](NC(=O)[C@H](N)c3ccccc3)[C@H]2SC1(C)C (some centres unmarked) [Bacampicillin hydrochloride]
[2]
  Luciferase IC50 (half-maximal inhibitory concentration): Inactive

## Cc1c(-c2ccc(O)cc2)n(Cc2ccc(OCCN3CCCCCC3)cc2)c2ccc(O)cc12 [Bazedoxifene]
[2]
  Luciferase IC50 (half-maximal inhibitory concentration): Inactive

## CCCCCCCCCCCCCCCC[N+](C)(C)Cc1ccccc1.[Cl-] [Benzylhexadecyldimethylammonium chloride]
Human CYP2D6
  CYP2D6 Efficacy: 0.34 ± 0.06 (-98 ± 2) %
Human CYP1A2 [1]
  CYP1A2 Efficacy: 75.23 ± 5.09 (-82 ± 8) %
[2]
  Luciferase IC50: Inactive
Human CYP2C9 [3]
  CYP2C9 Efficacy: 46.2 ± 8.63 (-120 ± 17) %
Human CYP2C19 [4]
  CYP2C19 Efficacy: 46.97 ± 13.09 (-144 ± 26) %

## [Cl-].c1ccc(C[P+](c2ccccc2)(c2ccccc2)c2ccccc2)cc1 [Benzyltriphenylphosphonium chloride]
[2]
  Luciferase IC50 (half-maximal inhibitory concentration): Inactive

## C[C@@H](Cc1ccccc1)NCc1ccccc1Cl.Cl [Clobenzorex hydrochloride]
Human CYP2D6
  CYP2D6 Efficacy: 0.15 ± 0.03 (-111 ± 2) %
Human CYP1A2 [1]
  CYP1A2 Efficacy: 15.49 ± 0 (-71 ± 4) %
[2]
  Luciferase IC50: Inactive
Human CYP2C9 [3]
  CYP2C9 IC50: Inactive
Human CYP2C19 [4]
  CYP2C19 Efficacy: 1.49 ± 0.1 (-137 ± 12) %

## CC#C[C@]1(O)CC[C@H]2[C@@H]3C[C@H](C)C4=CC(=O)CC[C@]4(C)[C@H]3CC[C@@]21C [Dimethisteron]
Human CYP2D6
  CYP2D6 IC50: Inactive
Human CYP2C9 [7]; CYP2C9 IC50
  IC50: 24.1 µM
Human CYP1A2 [1]
  CYP1A2 IC50: Inactive
Human CYP2C19 [5]; CYP2C19 IC50
  IC50: 9.42 µM
[2]
  Luciferase IC50: Inactive

## CCC(CN)=C(c1ccccc1)c1ccccc1.Cl [Etifelmine hydrochloride]
Human CYP2D6
  CYP2D6 Efficacy: 4.07 ± 0.52 (-106 ± 3) %
Human CYP1A2 [1]
  CYP1A2 Efficacy: 14.36 ± 3.71 (-50 ± 13) %
[2]
  Luciferase IC50: Inactive
Human CYP2C9 [3]
  CYP2C9 Efficacy: 11.85 ± 3.88 (-96 ± 8) %
Human CYP2C19 [4]
  CYP2C19 Efficacy: 5.99 ± 2.37 (-107 ± 10) %

## COc1ccc(CCN(C)CCCC(C#N)(c2cc(OC)c(OC)c(OC)c2)C(C)C)cc1OC (centres unmarked) [Gallopamil hydrochloride]
[2]
  Luciferase IC50 (half-maximal inhibitory concentration): Inactive

## CCCCCCCCCCCCCCCC[N+](C)(C)C.[Cl-] [Hexadecyl trimethyl ammonium chloride]
Human CYP2D6
  CYP2D6 Efficacy: 0.8 ± 0.05 (-93 ± 8) %
Human CYP1A2 [1]
  CYP1A2 IC50: Inactive
[2]
  Luciferase IC50: Inactive
Human CYP2C9 [3]
  CYP2C9 IC50: Inactive
Human CYP2C19 [4]
  CYP2C19 Efficacy: 43.2 ± 0.0 (-68 ± 16) %

## CC(CNC1CCCCC1)OC(=O)c1ccccc1 (centres unmarked) [Hexylcaine hydrochloride]
[2]
  Luciferase IC50 (half-maximal inhibitory concentration): Inactive

## OCCOCCN1CCN(C(c2ccccc2)c2ccc(Cl)cc2)CC1 (centres unmarked) [Hydroxyzine hydrochloride]
[2]
  Luciferase IC50: Inactive

## CC(C)(C)NC(=O)[C@@H]1CN(Cc2cccnc2)CCN1C[C@@H](O)C[C@@H](Cc1ccccc1)C(=O)N[C@H]1c2ccccc2C[C@H]1O [Indinavir sulfate]
[2]
  Luciferase IC50 (half-maximal inhibitory concentration): Inactive

## Clc1ccc(C(Cn2ccnc2)OCc2c(Cl)cccc2Cl)c(Cl)c1 (centres unmarked) [Isoconazole nitrate]
[2]
  Luciferase IC50 (half-maximal inhibitory concentration): Inactive

## CNCCCC12CCC(c3ccccc31)c1ccccc12 [Maprotiline hydrochloride]
[2]
  Luciferase IC50: Inactive

## CCN(CCCCOC(=O)c1ccc(OC)c(OC)c1)C(C)Cc1ccc(OC)cc1 (centres unmarked) [Mebeverine hydrochloride]
[2]
  Luciferase IC50 (half-maximal inhibitory concentration): Inactive

## CCCNC(C)(C)COC(=O)c1ccccc1 [Meprylcaine hydrochloride]
[2]
  Luciferase IC50 (half-maximal inhibitory concentration): Inactive

## CN1C[C@H](CNC(=O)OCc2ccccc2)C[C@@H]2c3cccc4c3c(cn4C)C[C@H]21 [Metergoline]
[2]
  Luciferase IC50: Inactive

## CC[C@@H](CO)NC(=O)[C@@H]1C=C2c3cccc4[nH]cc(c34)C[C@H]2N(C)C1 [Methergine]
[2]
  Luciferase IC50: Inactive

## CN(C)c1ccc2nc3ccc(=[N+](C)C)cc-3sc2c1 [Methylene blue]
[2]
  IC50: 29.1 µM

## CC#C[C@]1(O)CC[C@H]2[C@@H]3CCC4=CC(=O)CCC4=C3[C@@H](c3ccc(N(C)C)cc3)C[C@@]21C [Mifepristone]
[2]
  Luciferase IC50: Inactive

## COCCOC(=O)C1=C(C)NC(C)=C(C(=O)OC(C)C)C1c1cccc([N+](=O)[O-])c1 (centres unmarked) [Nimodipine]
[2]
  Luciferase IC50 (half-maximal inhibitory concentration): Inactive

## Cc1ccc2nc(N)[nH]c(=O)c2c1Sc1ccncc1.Cl.Cl [Nolatrexed dihydrochloride]
Human CYP2D6
  CYP2D6 Efficacy: 14.43 ± 1.84 (-95 ± 12) %
Human CYP1A2 [1]
  CYP1A2 Efficacy: 3.33 ± 0.9 (-94 ± 12) %
[2]
  Luciferase IC50: Inactive
Human CYP2C9 [3]
  CYP2C9 Efficacy: 4.82 ± 1.17 (-95 ± 9) %
Human CYP2C19 [4]
  CYP2C19 Efficacy: 3.3 ± 1.68 (-116 ± 1) %

## COc1cc(NC(C)CCCN)c2ncccc2c1 (centres unmarked) [Primaquine diphosphate]
[2]
  Luciferase IC50 (half-maximal inhibitory concentration): Inactive

## CCCNCC(O)COc1ccccc1C(=O)CCc1ccccc1 (centres unmarked) [Propafenone hydrochloride]
[2]
  Luciferase IC50 (half-maximal inhibitory concentration): Inactive

## O=C(c1ccc(OCCN2CCCCC2)cc1)c1c(-c2ccc(O)cc2)sc2cc(O)ccc12 [Raloxifene hydrochloride]
[2]
  Luciferase IC50 (half-maximal inhibitory concentration): Inactive

## CCNc1nc(NC(C)CC)nc(OC)n1 (centres unmarked) [Secbumeton]
Human CYP2D6
  CYP2D6 AC50 (half-maximal activity concentration): Inactive
Human CYP2C9 [7]
  AC50: 43.5 µM
Human CYP2C19 [5]
  AC50: 26.4 µM
CYP3A4
  CYP3A4 AC50 (half-maximal activity concentration): Inactive
Human CYP1A2 [6]
  AC50: 26.2 µM

## CSc1ccc2c(c1)N(CCC1CCCCN1C)c1ccccc1S2 (centres unmarked) [Thioridazine hydrochloride]
[2]
  Luciferase IC50 (half-maximal inhibitory concentration): Inactive

## Clc1ccccc1CN1CCc2sccc2C1 [Ticlopidine hydrochloride]
[2]
  IC50: 8.71 µM

## CC(CN(C)C)CN1c2ccccc2Sc2ccccc21.CC(CN(C)C)CN1c2ccccc2Sc2ccccc21.O=C(O)C(O)C(O)C(=O)O (centres unmarked) [Trimeprazine tartrate]
[2]
  Luciferase IC50 (half-maximal inhibitory concentration): Inactive

## CCOc1ccccc1OCC1CNCCO1 (centres unmarked) [Viloxazine hydrochloride]
[2]
  Luciferase IC50 (half-maximal inhibitory concentration): Inactive

## CC(C)c1nc(CN(C)C(=O)N[C@H](C(=O)N[C@@H](Cc2ccccc2)C[C@H](O)[C@H](Cc2ccccc2)NC(=O)OCc2cncs2)C(C)C)cs1 [ritonavir, reference compound]
[2]
  Luciferase IC50 (half-maximal inhibitory concentration): Inactive

## Diniconazole
[2]
  Luciferase IC50 (half-maximal inhibitory concentration): Inactive

## Kadethrin
[2]
  Luciferase IC50: Inactive

From paper PMC12155096 (International Journal of Molecular Sciences, 2025)
